Measured values from the NIST ThermoML archive (doi:10.1016/j.fluid.2011.03.012).
Numbers after ± are expanded uncertainties.

Tests used:
[1] = Molar enthalpy of transition or fusion; details: Crystal; DSC
[2] = Crystal; DTA

Molar enthalpy of transition or fusion [1]: 10.5 ± 0.287 kcal/mol | Normal melting temperature [2]: 263.6 ± 1.4 °C
SMILES: Cc1cnc(NC(=O)C2=C(O)c3ccccc3S(=O)(=O)N2C)s1 [meloxicam]
